Experimental data from US11746136B2, “Composition and methods for disruption of bacterial biofilms without accompanying inflammation” (Research Institute at Nationwide Children's Hospital, priority 2017, dated 2023).

Assays:
[1] = system: Staphylococcus aureus; assay: Anti-biofilm effect on in vitro preformed 24-hour biofilm (CLSM, COMSTAT); type: cell-based; design: key: ↓: 20-30% decrease; ↓↓: 31-50% decrease; ↓↓↓: >51% decrease; ↔: No change; conditions: 5 μg/ml added at 24h to preformed biofilm, 16 h incubation; decrease vs control
Description: (§1) To determine the antibiofilm function of the variant HMGB1 (mHMGB1 (C45S)), Applicants expressed and purified human recombinant HMGB1 (rHMGB1) and recombinant variant HMGB1 (mHMGB1 (C45S)) in E. coli. In vitro preformed 24-hour biofilms formed by multiple human pathogens as indicated in Table 1 were incubated with 5 μg/ml rHMGB1 or mHMGB1 (C45S) for 16 hours. Enterococcus faecium biofilms were incubated with 20 μg/ml rHMGB1 or mHMGB1 (C45S) for 16 hours. Biofilms were washed and stained with LIVE/DEAD® stain and analyzed using a confocal laser scanning microscope and COMSTAT analysis. Applicants observed that mHMGB1 (C45S) was effective at disrupting each of the in vitro preformed biofilms as indicated by significant reduction in average thickness and biomass compared to the control (Table 1).
(§2) HMGB1 isoforms (5 μg/ml) were added at 24h to in vitro preformed bacterial biofilms. After 16 h of incubation (40h total), biofilms were washed and stained with LIVE/DEAD® followed by visualization using CLSM. Biofilms were analyzed by Comstat to calculate average thickness^a (AT) and biomass^a (BM).

[2] = system: Acinetobacter baumanii; assay: as above; type: cell-based; conditions: 5 μg/ml added at 24h to preformed biofilm, 16 h incubation; decrease vs control
Description: as §1, §2

[3] = system: Aggregatibacter actinomycetemcomitans; assay: as above; type: cell-based; conditions: 5 μg/ml added at 24h to preformed biofilm, 16 h incubation; decrease vs control
Description: as §1, §2

[4] = system: Burkholderia cenocepacia; assay: as above; type: cell-based; conditions: 5 μg/ml added at 24h to preformed biofilm, 16 h incubation; decrease vs control
Description: as §1, §2

[5] = system: Enterobacter spp.; assay: as above; type: cell-based; conditions: 5 μg/ml added at 24h to preformed biofilm, 16 h incubation; decrease vs control
Description: as §1, §2

[6] = system: Enterococcus faecium; assay: as above; type: cell-based; conditions: 20 μg/ml added at 24h to preformed biofilm, 16 h incubation; decrease vs control
Description: as §1, §2

[7] = system: Klebsiella pneumoniae; assay: as above; type: cell-based; conditions: 5 μg/ml added at 24h to preformed biofilm, 16 h incubation; decrease vs control
Description: as §1, §2

[8] = system: Nontypeable Haemophilus influenzae; assay: as above; type: cell-based; conditions: 5 μg/ml added at 24h to preformed biofilm, 16 h incubation; decrease vs control
Description: as §1, §2

[9] = system: Pseudomonas aeruginosa; assay: as above; type: cell-based; conditions: 5 μg/ml added at 24h to preformed biofilm, 16 h incubation; decrease vs control
Description: as §1, §2

[10] = system: Uropathogenic E. coli; assay: as above; type: cell-based; conditions: 5 μg/ml added at 24h to preformed biofilm, 16 h incubation; decrease vs control
Description: as §1, §2

[11] = system: NTHI strain 86-028NP biofilms; assay: Chinchilla model of experimental otitis media, clearance of preformed NTHI biofilms; type: in vivo; conditions: 4-day old NTHI biofilm, two doses (day 4 and 5; 5 μg each) into middle ear, scored day 6, vs diluent
Description: Diluent, 5 μg rHMGB1, or 5 mHMGB1 (C45S) were delivered directly to the middle ears of chinchillas at 4 and 5 days post infection with NTHI. Animals were sacrificed 24 h later and their middle ears were imaged (FIG. 1A) and blindly scored (FIG. 1B) based on the criteria described in the bottom of FIG. 1A. Bars represent SEM. ***P<0.001.
Diluent or 5 μg rHMGB1 or mHMGB1 (C45 S) were delivered directly to middle ears of chinchillas at 4 and 5 days post infection with NTHI. Animals were sacrificed 24 h later, and their middle ears were imaged (FIG. 6A) and blindly scored (FIG. 6B) based on the criteria described in the bottom of (FIG. 6A). Bars represent SEM. ***P<0.001.
To determine the antibiofilm function of mHMGB1 (C45S) in vivo, Applicants employed two distinct animal models. In the first model Applicants tested the ability of rHMGB1 and mHMGB1 (C45S) to clear preformed NTHI biofilms in Applicants' well-established chinchilla model of experimental OM (Novotny et al. 2011; 2013b; Novotny et al. 2016). Applicants first established NTHI strain 86-028NP biofilms in the chinchilla middle ear for 4 days. […] On day 6 the animals were sacrificed and the middle ears were blindly scored for the presence of any remaining biofilm. […] After 4h, mice were sacrificed and total neutrophils were quantified in peritoneal lavage.

[12] = system: Burkholderia cenocepacia; type: in vivo, C57BL/6 mice; conditions: for bacterial burden (CFUs) in BAL: 10^7 CFU intratracheally, 5 μg added simultaneously, after 18 hours, vs control
Description: C57BL/6 mice were infected with 10^7 CFU i.t., and simultaneously received rHMGB1 or mHMGB1 (C45S). After 18 h, (FIG. 2A) B. cenocepacia CFUs were quantified in BAL, (FIG. 2B) total host cells infiltrating into the lung were enumerated in BAL, and (FIG. 2C) BAL cells were stained with anti CD45, CD11b and Ly-6G to measure neutrophil migration. Bars represent standard deviation. *P<0.05; **P<0.005. (FIG. 2D) Lungs were collected 72 hpi. Tissue was fixed and embedded in paraffin, sectioned and stained with H&E. All panels show a magnification of 10×.
C57BL/6 mice were infected with 10^7 CFU i.t., and simultaneously received […] rHMGB1 or mHMGB1 (C45 S). (FIG. 7A) Aggregates of B. cenocepacia were visible by fluorescence microscopy in sections probed with an α-B. cenocepacia antibody. After 18 h, (FIG. 7B) CFUs were quantified in BAL, and (FIG. 7C) BAL cells were stained with α-CD45, CD11b, and Ly-6G to measure neutrophil migration. Bars represent SD. *P<0.05.
To determine the antibiofilm function of mHMGB1 (C45S) in vivo, Applicants employed two distinct animal models. In the first model Applicants tested the ability of rHMGB1 and mHMGB1 (C45S) to clear preformed NTHI biofilms in Applicants' well-established chinchilla model of experimental OM (Novotny et al. 2011; 2013b; Novotny et al. 2016). Applicants first established NTHI strain 86-028NP biofilms in the chinchilla middle ear for 4 days. Applicants then treated the 4-day old NTHI biofilm with two doses (day 4 and 5; 5 μg each) of rHMGB1, mHMGB1 (C45S) or diluent. On day 6 the animals were sacrificed and the middle ears were blindly scored for the presence of any remaining biofilm. […] In the second model, Applicants tested the ability of rHMGB1 and mHMGB1 (C45S) to inhibit biofilm development of Burkholderia cenocepacia in the murine airways. C57BL/6 mice were infected with 10^7 CFU of B. cenocepacia intratracheally and 5 μg of rHMGB1 or mHMGB1 (C45S) was added simultaneously. After 18 hours, the animals were sacrificed and bronchoalveolar lavage (BAL) and lungs were collected. […] Lastly, Applicants validated the inflammatory activity of rHMGB1 and mHMGB1 (C45S) in an in vivo chemotaxis model to determine the ability to recruit neutrophils (Orlova et al. 2007; Penzo et al. 2010). C57BL/6 mice were injected with 5 μg of either mHMGB1 (C45S) or rHMGB1 or 1 ml of 4% thioglycollate. After 4h, mice were sacrificed and total neutrophils were quantified in peritoneal lavage.

[13] = system: branched DNA structures; assay: Affinity to branched DNA structures; type: binding; conditions: effect of the C45S mutation
[14] = Consequences of bacterial dispersal from biofilm in vivo (second site infections, sepsis)
Description: Also, this dispersal effect could result in sepsis.

[15] = system: Uropathogenic E. coli UTI89; assay: HMGB1 added at seeding and at 24h to UPEC biofilm; type: cell-based; conditions: 0.1, 1 and 5 μg/ml added at seeding and at 24h
Description: Applicants added HMGB1 at 0.1, 1 and 5 μg/ml at seeding and at 24h to a biofilm formed by Uropathogenic E. coli UTI89. […] Based on this information, Applicants hereby disclose a method for inhibiting, competing or titrating the binding of a deoxyribonucleic acid B II (DNABII) polypeptide to a microbial DNA in a biofilm, comprising, or alternatively consisting essentially of, or yet further consisting of, contacting the microbial DNA in the biofilm with an effective amount of an isolated or recombinant polypeptide comprising a modified high mobility group-box 1 domain (mHMGB1) comprising a C45S substitution thereby inhibiting, competing or titrating the binding of the DNABII polypeptide to the microbial DNA. The contacting can be accomplished in vitro or in vivo. Non-limiting examples of organisms that promote our cause the biofilm include one or more of Burkholderia cenocepacia, Enterobacter spp., Staphylococcus aureus, Klebsiella pneumoniae, Acinetobacter baumanii, Pseudomonas aeruginosa, Enterococcus faecium, Uropathogenic Escherichia coli (UPEC), Non-typeable Haemophilus influenzae (NTHI), and/or Aggregatibacter actinomycetemcomitans.

Row | Molecule | average thickness (AT) [1] | biomass (BM) [1] | average thickness (AT) [2] | biomass (BM) [2] | average thickness (AT) [3] | biomass (BM) [3] | average thickness (AT) [4] | biomass (BM) [4] | average thickness (AT) [5] | biomass (BM) [5] | average thickness (AT) [6] | biomass (BM) [6] | average thickness (AT) [7] | biomass (BM) [7] | average thickness (AT) [8] | biomass (BM) [8] | average thickness (AT) [9] | biomass (BM) [9] | average thickness (AT) [10] | biomass (BM) [10] | also measured
1 | mHMGB1 (C45S): variant human HMGB1 with the cysteine at position 45 substituted with serine, expressed in E. coli (MGKGDPKKPRGKMSSYAFFVQTCREEHKKKHPDASVNFSEFSKKSSERWK) | ↓↓↓ (>51% decrease) | ↓↓↓ (>51% decrease) | ↓↓↓ (>51% decrease) | ↓↓↓ (>51% decrease) | ↓ (20-30% decrease) | ↓ (20-30% decrease) | ↓↓↓ (>51% decrease) | ↓↓↓ (>51% decrease) | ↓↓↓ (>51% decrease) | ↓↓↓ (>51% decrease) | ↓↓ (31-50% decrease) | ↓↓ (31-50% decrease) | ↓↓↓ (>51% decrease) | ↓↓↓ (>51% decrease) | ↓ (20-30% decrease) | ↓ (20-30% decrease) | ↓↓↓ (>51% decrease) | ↓↓↓ (>51% decrease) | ↓↓↓ (>51% decrease) | ↓↓↓ (>51% decrease) | clearing of biofilm from the middle ear (blindly scored) [11]: very effective at clearing the biofilms from the middle ear; B. cenocepacia CFUs in BAL compared to rHMGB1 ([12]; 10^7 CFU i.t., simultaneous treatment, after 18 h, compared to rHMGB1): significant decreases; bacterial burden (CFUs) in BAL [12]: effective at reducing the bacterial burden in BAL; inflammatory cell infiltration compared to rHMGB1 ([12]; mouse, in vivo): significant decreases; lung damage (H&E) ([12]; mouse, in vivo): more resembled uninfected mouse lungs; affinity to branched DNA structures [13]: increases the affinity of the molecule to branched DNA structures; second site infections or sepsis after dispersal of bacteria from biofilm [14]: None of these consequences has been observed
2 | rHMGB1: recombinant HMGB1 derived from a human, expressed and purified in E. coli, used as comparator to mHMGB1 (C45S) [reference compound] | ↔ | ↔ | ↓↓↓ (>51% decrease) | ↓↓ (31-50% decrease) | ↓ (20-30% decrease) | ↓ (20-30% decrease) | ↓↓↓ (>51% decrease) | ↓↓↓ (>51% decrease) | ↓↓↓ (>51% decrease) | ↓↓↓ (>51% decrease) | ↓↓↓ (>51% decrease) | ↓↓↓ (>51% decrease) | ↓↓↓ (>51% decrease) | ↓↓↓ (>51% decrease) | ↓ (20-30% decrease) | ↓ (20-30% decrease) | ↓↓↓ (>51% decrease) | ↓↓↓ (>51% decrease) | ↓↓ (31-50% decrease) | ↓↓ (31-50% decrease) | clearing of biofilm from the middle ear (blindly scored) [11]: very effective at clearing the biofilms from the middle ear; bacterial burden (CFUs) in BAL [12]: effective at reducing the bacterial burden in BAL; lung damage (H&E) ([12]; mouse, in vivo): severe inflammation and increased neutrophil response
3 | HMGB1: HMGB1 added to UPEC UTI89 biofilm; probably the recombinant human HMGB1 (rHMGB1) (protein, UniProt P09429 1-215, looked up) High mobility group protein B1: MGKGDPKKPRGKMSSYAFFVQTCREEHKKKHPDASVNFSEFSKKCSERWKTMSAKEKGKFEDMAKADKARYEREMKTYIPPKGETKKKFKDPNAPKRPPSAFFLFCSEYRPKIKGEHPGLSIGDVAKKLGEMWNNTAADDKQPYEKKAAKLKEKYEKDIAAYRAKGKPDAAKKGVVKAEKSKKKKEEEEDEEDEEDEEEEEDEEDEDEEEDDDDE | – | – | – | – | – | – | – | – | – | – | – | – | – | – | – | – | – | – | – | – | disruption of UPEC biofilms [15]: dose-dependent disruption of UPEC biofilms
